Measured values taken from patent publication US5854010A, “Bioassay for detecting 2,3,7,8-tetrachlorodibenzo-para-dioxin and TCDD-like compounds and novel recombinant cell line useful therefor” (priority 1997, dated 1998).

How the values were obtained:
H1L1.1 cells [1] = test: TCDD-inducible luciferase activity, stably transfected clonal cell line; type: cell-based, mouse; conditions: 24 h
Protocol: (§1) Using the stabilized luciferase assay system (purchased from Promega), luciferase activity in an aliquot of the cleared lysed cell supernatant (20 μl) was determined by mixing it with 100 µl of luciferase assay reagent (purchased from Promega) and measuring the resulting luminescence in a Turner Luminometer or Dynatech ML3000 microplate luminometer (light output was integrated over 1 minute after a delay time of 30 seconds).
(§2) Using a microplate adaptation of the method reported by Bradford in "A Rapid Sensitive Method for the Quantitation of Microgram Quantities of Protein Utilizing the Principle of Protein-Dye Binding", Anal. Biochem., […], pp. 248-254 (1976), luciferase activity was standardized to the protein concentration of the supernatant (with bovine serum albumin as the protein standard). Because of instrument differences in luminescence measurement and data output, luciferase activity was determined as relative light units (RLU) per microgram of protein, which was converted to milligram of protein as reported in the Tables below.
(§3) Cells from each of these five stable cell lines were cotransfected with the vectors, pGudLuc1.1 and pSV2neo (15 μg of each). Following a 24 hour incubation, the cotransfected cells were split 1 to 10 and replated into a selective medium containing the antibiotic, G418. After 2-3 weeks of growth, individual cell colonies were identified and isolated. Although numerous inducible cell clones were isolated, many contained high constitutive luciferase activity, possibly due to integration of the plasmid (or a truncated form of the plasmid) into a genomic site which allows the promoter to be continually active. […] The clones with the greatest ratio of inducible to constitutive luciferase activity were selected for further characterization.
(§4) More particularly, isolated clones were grown until confluent, and then incubated in the absence or presence of TCDD (1 nM solubilized in DMSO) for 24 hours. After the incubation, luciferase activity was determined as described above.

MLEL1.1c1 cells = test: as above; type: cell-based, mouse; conditions: 24 h
Protocol: as §1, §2, §3, §4

G16L1.1c8 cells = test: as above; type: cell-based, guinea pig; conditions: 24 h
Protocol: as §1
as §2, with “below. […]” for “below.”
as §4

HG2L1.1c3 cells = test: as above; type: cell-based, human; conditions: 24 h
Protocol: as §1
as §2, with “below. […]” for “below.”
as §4

H1L1.1 cells [2] = test: Dose response of luciferase induction, 24 h (FIGS. 3-6, Table 3); type: cell-based, mouse; conditions: for Induced luciferase activity, TCDD reference: 1 nM TCDD in DMSO
Protocol: The graph of FIG. 3 illustrates the dose dependence of luciferase induction in the mouse H1L1.1 cells measured following […] of the cells to increasing concentrations of TCDD or other toxic compounds (which others are discussed in more detail below).
More particularly, the stable cell clones for the mouse H1L1.1 cells (about 90% confluent) were plated into six-well microplates (purchased from Corning) and incubated for 24 hours with the indicated concentration of the particular toxin solubilized in DMSO. Then, the cells were lysed with 100 μl of lysis buffer and luciferase activity was determined as described above. Values represent the mean ± the standard evaluation of at least triplicate determinations.
As set out in Table 3, the responsiveness and sensitivity of the mouse H1L1.1 cells was compared to the responsiveness and sensitivity of certain other published PCDH cell bioassay systems. The other systems were a recombinant HepG2 (101L) cell line that induces firefly luciferase (see, Postlind et al., supra), a recombinant Hepa1 (T13) cell line that induces PAP activity (see El-Fouly et al., supra), and a rat H4IIE cell line that induces EROD activity (see, Kennedy et al., supra). The ED50 values were calculated by probit analysis of the dose-response data.
As set out in the graphs of FIGS. 3-6, since one use of the stably transfected mouse H1L1.1 cell lines is for detection and relative quantitative analysis of TCDD and various dioxin-like compounds (i.e., AhR ligands), the ability of various compounds besides TCDD to induce luciferase activity in the mouse H1L1.1 cells was examined. The experiments performed to determine the dose-response curves for the toxins other than TCDD set out in the graphs of FIGS. 3-6 were performed in essentially the same manner as the experiments described above to determine the dose response curve of TCDD set out in the graph of FIG. 3.
Specifically, with respect to the data illustrated in the graph of FIG. 3, cells were incubated with increasing concentrations of test chemical and luciferase activity determined after 24 hours.
It should be noted that the low numerical values of luciferase activity from induction by various PCBs reported in FIGS. 4 and 5, compared to the values reported in the other figures, are not due to actual low levels of luciferase induction, but to the fact that the detection of luminescence in these experiments was performed using a different instrument from that used in the other experiments.
However, the relative magnitude of luciferase induction by the mono-ortho-PCBs (FIG. 4) and the AROCLORS (FIG. 5) was established by directly comparing the resulting activity to that produced by a maximally inducing dose of TCDD (1 nM solubilized in DMSO) measured in the same instrument.

[3] = system: Rat H4IIE cells, CYP1A1/EROD; conditions: Table 3 comparison, Kennedy et al., cited from earlier work
[4] = system: Mouse T13 cells (recombinant Hepa1), alkaline phosphatase; conditions: Table 3 comparison, El-Fouly et al.; read-out: ED50 (the source's name); cited from earlier work
[5] = Mus musculus, TCDD 1 nM vs DMSO
[6] = TCDD 1 nM, mean ± SD of triplicate assays

SMILES: Clc1cc2c(cc1Cl)Oc1cc(Cl)c(Cl)cc1O2 [TCDD, 2,3,7,8-tetrachlorodibenzo-para-dioxin]
- fold induction (H1L1.1 cells [1]; [5]): 74
- Luciferase activity, TCDD in DMSO (H1L1.1 cells [1]; [6]): 5.92 ± 0.70 RLU/mg protein
- fold induction (MLEL1.1c1 cells; [5]): 14
- Luciferase activity, TCDD in DMSO (MLEL1.1c1 cells; [6]): 0.29 ± 0.05 RLU/mg protein
- fold induction (G16L1.1c8 cells; Cavia porcellus, TCDD 1 nM vs DMSO): 25
- Luciferase activity, TCDD in DMSO (G16L1.1c8 cells; [6]): 0.76 ± 0.03 RLU/mg protein
- fold induction (HG2L1.1c3 cells; Homo sapiens, TCDD 1 nM vs DMSO): 29
- Luciferase activity, TCDD in DMSO (HG2L1.1c3 cells; [6]): 25.04 ± 1.88 RLU/mg protein
- Induced luciferase activity, TCDD reference (H1L1.1 cells [2]; instrument of FIG. 4): 2.25±0.6
- Induced luciferase activity, TCDD reference (H1L1.1 cells [2]; instrument of FIG. 5): 0.95±0.07
- EC50 (H1L1.1 cells [2]; Mus musculus, 24 h, FIG. 3): ~0.02 nM
- fold induction at 0.001 µM (H1L1.1 cells [2]; Mus musculus, by 1.0 nM TCDD, 24 h, FIG. 3, read-out: Maximal induction of luciferase activity): 80
- Dose dependence of luciferase induction (H1L1.1 cells [2]; TCDD, 24 h, FIG. 3): dose dependent
- MDL (minimal detection level) [3]: 10 pM
- EC50 ([3]; read-out: ED50 (the source's name)): 0.1 nM
- EC50 [4]: 0.35 nM
